The results in this text go back to patent US20230393140A1, “BINDING ASSAYS INVOLVING A PLURALITY OF SYNTHETIC COMPOUNDS, TARGETS, AND COUNTER TARGETS” (SRI International, priority 2020, published 2023).

The target of the experiment is T1, IL-6 (Homo sapiens, UniProt P05231).
T1 construct: purchased Creative Biomart IL6-12H
In words: MST binding affinity of resynthesized NNP hits to IL-6. On the procedure: Hit binding affinity to various targets were determined using Microscale Thermophoresis (MST). MST experiments were performed on a Monolith NT.115pico (NanoTemper Technologies GmbH, Munich, Germany). Measurements were performed at room temperature, in triplicate with incubation periods of 15, 30 and 45 minutes. […] Targets were labeled using Nanotemper Monolith 2nd Generation Protein Labeling Kits. RED-MALEIMIDE (Maleimide-647-dye) labeling kit was used for K-Ras and RED-NHS (NHS-647-dye) labeling kit was used for IL-6, IL-6R, TNFα and ASGPR. The buffer for the ASGPR contained 20 mM HEPES pH 7.4, 150 mM NaCl, 10 mM MgCl2, 2 mM CaCl2, 0.05% Pluronic F-127, and 1 mM DTT; for IL-6 contained 20 mM HEPES pH 7.4, 150 mM KCl, 10 mM MgCl2, and 0.1% Pluronic F-127; for the soluble IL-6 receptor 20 mM HEPES pH 7.4, 150 mM NaCl, 10 mM MgCl2, and 0.05% Tween-20; for K-Ras 20 mM HEPES pH 7.4, 150 mM NaCl, 10 mM MgCl2, 0.05% Tween-20 and 1 mM DTT; for TNFα 10 mM HEPES pH 7.4, 150 mM NaCl, 10 mM MgCl2, 0.05% Polysorbate-20. Triplicate data was analyzed using MO.AffinityAnalysis software (NanoTemper Technologies GmbH).

Where [1] appears, read: NNP2 library hit, target IL-6, one-site binding model.

Like-named read-outs stand apart in the source and are kept apart here. Numbered stars: 1 amine (or outer) side, 2 acyl side, 3 side chain; on linkers, the order of the positions; unused ones are H or OH. Square brackets hold non-standard residues; d marks the D form. Peptide text beside a SMILES is read from it. * marks the point of attachment. 5FAM = O=C1OC2(c3ccc(O)cc3Oc3cc(O)ccc32)c2ccc(C(=O)*)cc21; NHCH2C6H4(4-CH2CONH2) = NC(=O)Cc1ccc(CN*)cc1; X1 = O=C(Cc1ccc(CN[*:1])cc1)[*:2]

For the compound `CC(C)C[C@H](NC(=O)[C@@H](CCCNC(=N)N)NC(=O)[C@@H](Cc1c[nH]c2ccccc12)NC(=O)Cc1ccc(CNC(=O)[C@H](Cc2ccccc2)NC(=O)[C@@H](CO)NC(=O)[C@@H](CCCNC(=N)N)NC(=O)Cc2ccc(CNC(=O)[C@H](Cc3ccccc3)NC(=O)[C@@H](CO)NC(=O)[C@@H](CCC(=O)O)NC(=O)Cc3ccc(CNC(=O)[C@H](Cc4ccccc4)NC(=O)[C@@H](Cc4c[nH]c5ccccc45)NC(=O)[C@@H](CCCNC(=N)N)NC(=O)c4ccc5c(c4)C(=O)OC54c5ccc(O)cc5Oc5cc(O)ccc54)cc3)cc2)cc1)C(=O)NCc1ccc(CC(=O)NCC(=O)N[C@H](C)C(=O)N[C@H](C(=O)NCc2ccc(CC(=O)N[C@H](CC(N)=O)C(=O)N[C@H](CCCNC(=N)N)C(=O)N[C@@H](Cc3ccccc3)C(=O)NCc3ccc(CC(=O)N[C@H](C)C(=O)N[C@H](CO)C(=O)N[C@@H](Cc4ccccc4)C(=O)NCc4ccc(CC(=O)N5CCC[C@@H]5C(=O)N[C@H](CCCNC(=N)N)C(=O)N[C@@H](C)C(=O)NCc5ccc(CC(=O)N[C@H](Cc6ccccc6)C(=O)N[C@H](CCCCN)C(=O)NCC(=O)NCc6ccc(CC(N)=O)cc6)cc5)cc4)cc3)cc2)C(C)C)cc1` [IL6-65-3, Fluorescein-(D)Arg-(D)Trp-(L)Phe-PAM-(D)Glu-(D)Ser-(L)Phe-PAM-(D)Arg-(D)Ser-(L)Phe-PAM-(D)Trp-(D)Arg-(L)Leu-PAM-Gly-(D)Ala-(L)Val-PAM-(D)Asn-(D)Arg-(L)Phe-PAM-(D)Ala-(D)Ser-(L)Phe- PAM-(D)Pro-(D)Arg-(L)Ala-PAM-(D)Phe-(D)Lys-Gly-PAM] (5FAM-[dR][dW]F[X1][dE][dS]F[X1][dR][dS]F[X1][dW][dR]L[X1]G[dA]V[X1][dN][dR]F[X1][dA][dS]F[X1][dP][dR]A[X1][dF][dK]G-{NHCH2C6H4(4-CH2CONH2)}), the Kd (usually a measure of binding affinity in units of concentration) under setting [1] stood at 90 nM.
Consider `CC(C)C[C@H](NC(=O)[C@@H](CCCNC(=N)N)NC(=O)CNC(=O)Cc1ccc(CNC(=O)[C@H](CC(C)C)NC(=O)[C@@H](CC(C)C)NC(=O)[C@@H](Cc2ccc(O)cc2)NC(=O)c2ccc3c(c2)C(=O)OC32c3ccc(O)cc3Oc3cc(O)ccc32)cc1)C(=O)NCc1ccc(CC(=O)N[C@H](CCCNC(=N)N)C(=O)N[C@H](CO)C(=O)N[C@@H](Cc2ccccc2)C(=O)NCc2ccc(CC(=O)N[C@H](Cc3ccccc3)C(=O)N[C@H](CCCNC(=N)N)C(=O)N[C@@H](C)C(=O)NCc3ccc(CC(=O)N[C@H](CCC(=O)O)C(=O)N[C@H](CCCCN)C(=O)N[C@@H](Cc4ccccc4)C(=O)NCc4ccc(CC(=O)N[C@H](CCC(=O)O)C(=O)N[C@H](CCCNC(=N)N)C(=O)N[C@@H](CC(C)C)C(=O)NCc5ccc(CC(=O)N[C@H](C)C(=O)N[C@H](CCCNC(=N)N)C(=O)N[C@@H](CC(C)C)C(=O)NCc6ccc(CC(=O)N7CCC[C@@H]7C(=O)N[C@H](CCCNC(=N)N)C(=O)N[C@@H](C)C(=O)NCc7ccc(CC(=O)N[C@H](Cc8ccc(O)cc8)C(=O)N[C@H](CCCNC(=N)N)C(=O)N[C@@H](Cc8ccccc8)C(=O)NCc8ccc(CC(N)=O)cc8)cc7)cc6)cc5)cc4)cc3)cc2)cc1` [IL6-65-7, Fluorescein-(D)Tyr-(D)Leu-(L)Leu-PAM-Gly-(D)Arg-(L)Leu-PAM-(D)Arg-(D)Ser-(L)Phe-PAM-(D)Phe-(D)Arg-(L)Ala-PAM-(D)Glu-(D)Lys-(L)Phe-PAM-(D)Glu-(D)Arg-(L)Leu-PAM-(D)Ala-(D)Arg-(L)Leu- PAM-(D)Pro-(D)Arg-(L)Ala-PAM-(D)Tyr-(D)Arg-(L)Phe-PAM] (5FAM-[dY][dL]L[X1]G[dR]L[X1][dR][dS]F[X1][dF][dR]A[X1][dE][dK]F[X1][dE][dR]L[X1][dA][dR]L[X1][dP][dR]A[X1][dY][dR]F-{NHCH2C6H4(4-CH2CONH2)}), for which the Kd (read-out: KD (nM) [95% conf. int], NNP2 library hit, target IL-6, one-site binding model) came out at 210 nM.
As for `CC(C)C[C@H](NC(=O)[C@@H](CC(N)=O)NC(=O)[C@@H](CCCCN)NC(=O)Cc1ccc(CNC(=O)[C@H](C)NC(=O)[C@H](NC(=O)[C@@H](Cc2ccccc2)NC(=O)Cc2ccc(CNC(=O)[C@H](Cc3ccccc3)NC(=O)[C@@H](CCCCN)NC(=O)[C@@H](C)NC(=O)Cc3ccc(CNC(=O)[C@H](C)NC(=O)[C@@H](CCCNC(=N)N)NC(=O)[C@@H](Cc4ccccc4)NC(=O)Cc4ccc(CNC(=O)[C@H](C)NC(=O)[C@@H](CCCCN)NC(=O)[C@H]5CCCN5C(=O)Cc5ccc(CNC(=O)[C@H](Cc6ccccc6)NC(=O)[C@@H](C)NC(=O)[C@@H](C)NC(=O)Cc6ccc(CNC(=O)[C@H](Cc7ccccc7)NC(=O)[C@@H](CC(C)C)NC(=O)[C@@H](Cc7c[nH]cn7)NC(=O)c7ccc8c(c7)C(=O)OC87c8ccc(O)cc8Oc8cc(O)ccc87)cc6)cc5)cc4)cc3)cc2)[C@H](C)O)cc1)C(=O)NCc1ccc(CC(=O)N[C@@H](C(=O)N[C@H](Cc2c[nH]cn2)C(=O)N[C@@H](CC(C)C)C(=O)NCc2ccc(CC(=O)N[C@H](Cc3ccccc3)C(=O)N[C@H](CCCCN)C(=O)NCC(=O)NCc3ccc(CC(N)=O)cc3)cc2)[C@H](C)O)cc1` [IL6-65-2, Fluorescein-(D)His-(D)Leu-(L)Phe-PAM-(D)Ala-(D)Ala-(L)Phe-PAM-(D)Pro-(D)Lys-(L)Ala-PAM-(D)Phe-(D)Arg-(L)Ala-PAM-(D)Ala-(D)Lys-(L)Phe-PAM-(D)Phe-(D)Thr-(L)Ala-PAM-(D)Lys-(D)Asn- (L)Leu-PAM-(D)Thr-(D)His-(L)Leu-PAM-(D)Phe-(D)Lys-Gly-PAM] (5FAM-[dH][dL]F[X1][dA][dA]F[X1][dP][dK]A[X1][dF][dR]A[X1][dA][dK]F[X1][dF][dT]A[X1][dK][dN]L[X1][dT][dH]L[X1][dF][dK]G-{NHCH2C6H4(4-CH2CONH2)}), under setting [1], the Kd is 400 nM.
Same read-out and setting: for `CC(C)C[C@H](NC(=O)[C@@H](CCCCN)NC(=O)[C@@H](Cc1c[nH]cn1)NC(=O)Cc1ccc(CNC(=O)[C@H](CC(C)C)NC(=O)[C@@H](CCCNC(=N)N)NC(=O)[C@@H](Cc2c[nH]c3ccccc23)NC(=O)Cc2ccc(CNC(=O)[C@H](Cc3ccccc3)NC(=O)[C@@H](Cc3ccc(O)cc3)NC(=O)[C@@H](Cc3c[nH]cn3)NC(=O)Cc3ccc(CNC(=O)[C@H](CC(C)C)NC(=O)[C@@H](CCCNC(=N)N)NC(=O)[C@@H](CC(C)C)NC(=O)Cc4ccc(CNC(=O)[C@H](Cc5ccccc5)NC(=O)[C@@H](Cc5c[nH]c6ccccc56)NC(=O)[C@@H](CCCNC(=N)N)NC(=O)c5ccc6c(c5)C(=O)OC65c6ccc(O)cc6Oc6cc(O)ccc65)cc4)cc3)cc2)cc1)C(=O)NCc1ccc(CC(=O)N[C@H](C)C(=O)N[C@H](Cc2ccc(O)cc2)C(=O)NCC(=O)NCc2ccc(CC(=O)N[C@H](Cc3c[nH]cn3)C(=O)N[C@H](CCC(=O)O)C(=O)N[C@@H](CC(C)C)C(=O)NCc3ccc(CC(=O)N4CCC[C@@H]4C(=O)N[C@H](CCCNC(=N)N)C(=O)N[C@@H](C)C(=O)NCc4ccc(CC(=O)N[C@H](Cc5ccccc5)C(=O)N[C@H](CCCCN)C(=O)NCC(=O)NCc5ccc(CC(N)=O)cc5)cc4)cc3)cc2)cc1` [IL6-65-4, Fluorescein-(D)Arg-(D)Trp-(L)Phe-PAM-(D)Leu-(D)Arg-(L)Leu-PAM-(D)His-(D)Tyr-(L)Phe-PAM-(D)Trp-(D)Arg-(L)Leu-PAM-(D)His-(D)Lys-(L)Leu-PAM-(D)Ala-(D)Tyr-Gly-PAM-(D)His-(D)Glu-(L)Leu- PAM-(D)Pro-(D)Arg-(L)Ala-PAM-(D)Phe-(D)Lys-Gly-PAM] (5FAM-[dR][dW]F[X1][dL][dR]L[X1][dH][dY]F[X1][dW][dR]L[X1][dH][dK]L[X1][dA][dY]G[X1][dH][dE]L[X1][dP][dR]A[X1][dF][dK]G-{NHCH2C6H4(4-CH2CONH2)}) the value was 37 nM.
